Laboratory results: patent publication US9005575B2, “Arg-Gly-Asp-conjugated alpha-melanocyte stimulating hormone hybrid peptide for use in diagnosing and treating melanoma, including metastatic melanoma and methods related to same” (STC.UNM, priority 2009, dated 2015)
Like-named read-outs stand apart in the source and are kept apart here. Positions of bridges follow the written chain, without caps; N, C: chain ends. Non-standard residues stand in square brackets, D forms with d. Residues, ends and D or L forms follow the SMILES beside them.

Experiment: Biodistribution in B16/F1 melanoma-bearing C57 mice
Type: in vivo
Conditions: female, C57, mouse, iv, total radioactivity
Procedure: All the animal studies were conducted in compliance with Institutional Animal Care and Use Committee approval. The pharmacokinetics of ^99mTc-RGD-Lys-(Arg^11)CCMSH was determined in B16/F1 melanoma-bearing C57 female mice (Harlan, Indianapolis, Ind.). C57 mice were subcutaneously inoculated on the right flank with 1×10^6 B16/F1 cells. The weight of tumors reached approximately 0.2 g 10 days post cell inoculation. Each melanoma-bearing mouse was injected with 0.037 MBq of ^99mTc-RGD-Lys-(Arg^11)CCMSH via the tail vein. Groups of 5 mice were sacrificed at 0.5, 2, 4 and 24 h post-injection, and tumors and organs of interest were harvested, weighed and counted. Blood values were taken as 6.5% of the whole-body weight. The MC1 receptor specificity of the tumor uptake was determined at 2 h post-injection by co-injecting ^99mTc-RGD-Lys-(Arg^11)CCMSH with 10 μg (6.1 nmol) of unlabeled NDP-MSH, a linear α-MSH peptide analogue with picomolar affinity for the MC1 receptors present on murine melanoma cells. The co-injection of 3.5 μg (6.1 nmol) of RGD peptide was performed to determine the αvβ3 integrin specificity of the tumor uptake 2 h post-injection. Statistical analysis was performed using the Student's t-test for unpaired data.
All the animal studies were conducted in compliance with Institutional Animal Care and Use Committee approval. The pharmacokinetics of ^99mTc-RGD-Arg-(Arg^11)CCMSH was determined in B16/F1 melanoma-bearing C57 female mice (Harlan, Indianapolis, Ind.). C57 mice were subcutaneously inoculated on the right flank with 1×10^6 B16/F1 cells. The weight of tumors reached approximately 0.2 g 10 days post cell inoculation. Each melanoma-bearing mouse was injected with 0.037 MBq of ^99mTc-RGD-Arg-(Arg^11)CCMSH via the tail vein. Groups of 5 mice were sacrificed at 0.5, 2, 4 and 24 h post-injection, and tumors and organs of interest were harvested, weighed and counted. Blood values were taken as 6.5% of the whole-body weight. The MC1 receptor specificity of the tumor uptake was determined at 2 h post-injection by co-injecting ^99mTc-RGD-Arg-(Arg^11)CCMSH with 10 μg (6.1 nmol) of unlabeled NDP-MSH. The co-injection of 3.5 μg (6.1 nmol) of RGD peptide was performed to determine the αvβ3 integrin specificity of the tumor uptake at 2 h post-injection.

## CC(C)[C@H](NC(=O)[C@@H]1CCCN1C(=O)[C@H](CCCNC(=N)N)NC(=O)[C@H](CS)NC(=O)[C@H](Cc1c[nH]c2ccccc12)NC(=O)[C@H](CCCNC(=N)N)NC(=O)[C@@H](Cc1ccccc1)NC(=O)[C@H](Cc1c[nH]cn1)NC(=O)[C@H](CCC(=O)O)NC(=O)[C@H](CS)NC(=O)[C@H](CS)NC(=O)[C@H](CCCNC(=N)N)NC(=O)[C@@H]1CC(=O)N[C@@H](CCCNC(=N)N)C(=O)NCC(=O)N[C@@H](CC(=O)O)C(=O)N[C@H](Cc2ccc(O)cc2)C(=O)N1)C(N)=O [^99mTc-RGD-Arg-(Arg^11)CCMSH, metal not drawn] (RGD[dY]DRCCEH[dF]RWCRPV-NH2; lactam N-5)
skin, 0.037 MBq, 2 h post-injection, read-out: Skin, Percentage Injected Dose/gram
  tissue uptake at 2 h: 1.29 ± 0.32 %ID/g
skin, 0.037 MBq, 4 h post-injection, read-out: Skin, Percentage Injected Dose/gram
  tissue uptake at 4 h: 0.82 ± 0.22 %ID/g
skin, 0.037 MBq, 24 h post-injection, read-out: Skin, Percentage Injected Dose/gram
  tissue uptake at 24 h: 0.75 ± 0.13 %ID/g
skin, 2 h post-injection, NDP blockade (10 μg NDP-MSH co-injected), read-out: Skin, Percentage Injected Dose/gram
  tissue uptake at 2 h: 1.26 ± 0.14 %ID/g
skin, 2 h post-injection, RGD blockade (3.5 μg RGD co-injected), read-out: Skin, Percentage Injected Dose/gram
  tissue uptake at 2 h: 0.95 ± 0.38 %ID/g
spleen, 0.037 MBq, 0.5 h post-injection, read-out: Spleen, Percentage Injected Dose/gram
  tissue uptake at 0.5 h: 2.73 ± 0.8 %ID/g
spleen, 0.037 MBq, 2 h post-injection, read-out: Spleen, Percentage Injected Dose/gram
  tissue uptake at 2 h: 1.17 ± 0.57 %ID/g
spleen, 0.037 MBq, 4 h post-injection, read-out: Spleen, Percentage Injected Dose/gram
  tissue uptake at 4 h: 1.75 ± 0.55 %ID/g
spleen, 0.037 MBq, 24 h post-injection, read-out: Spleen, Percentage Injected Dose/gram
  tissue uptake at 24 h: 1.45 ± 0.37 %ID/g
spleen, 2 h post-injection, NDP blockade (10 μg NDP-MSH co-injected), read-out: Spleen, Percentage Injected Dose/gram
  tissue uptake at 2 h: 1.53 ± 0.12 %ID/g
spleen, 2 h post-injection, RGD blockade (3.5 μg RGD co-injected), read-out: Spleen, Percentage Injected Dose/gram
  tissue uptake at 2 h: 0.67 ± 0.38 %ID/g
stomach, 0.037 MBq, 0.5 h post-injection, read-out: Stomach, Percentage Injected Dose/gram
  tissue uptake at 0.5 h: 4.3 ± 1.78 %ID/g
stomach, 0.037 MBq, 2 h post-injection, read-out: Stomach, Percentage Injected Dose/gram
  tissue uptake at 2 h: 2.75 ± 1.71 %ID/g
stomach, 0.037 MBq, 4 h post-injection, read-out: Stomach, Percentage Injected Dose/gram
  tissue uptake at 4 h: 3.44 ± 0.83 %ID/g
stomach, 0.037 MBq, 24 h post-injection, read-out: Stomach, Percentage Injected Dose/gram
  tissue uptake at 24 h: 0.47 ± 0.17 %ID/g
stomach, 2 h post-injection, NDP blockade (10 μg NDP-MSH co-injected), read-out: Stomach, Percentage Injected Dose/gram
  tissue uptake at 2 h: 2.4 ± 0.49 %ID/g
stomach, 2 h post-injection, RGD blockade (3.5 μg RGD co-injected), read-out: Stomach, Percentage Injected Dose/gram
  tissue uptake at 2 h: 2.03 ± 1.39 %ID/g
Tumor and kidneys, 0.037 MBq, 0.5 h post-injection, read-out: Tumor/kidney uptake ratio, times that of ^99mTc-RGD-Lys-(Arg^11)CCMSH
  Fold change in tumor/kidney uptake ratio versus ^99mTc-RGD-Lys-(Arg^11)CCMSH at 0.5 h: 2.38
Tumor and kidneys, 0.037 MBq, 2 h post-injection, read-out: Tumor/kidney uptake ratio, times that of ^99mTc-RGD-Lys-(Arg^11)CCMSH
  Fold change in tumor/kidney uptake ratio versus ^99mTc-RGD-Lys-(Arg^11)CCMSH at 2 h: 2.27
Tumor and kidneys, 0.037 MBq, 4 h post-injection, read-out: Tumor/kidney uptake ratio, times that of ^99mTc-RGD-Lys-(Arg^11)CCMSH
  Fold change in tumor/kidney uptake ratio versus ^99mTc-RGD-Lys-(Arg^11)CCMSH at 4 h: 2.44
tumor, 0.037 MBq, 0.5 h post-injection, read-out: Tumor, Percentage Injected Dose/gram
  tissue uptake at 0.5 h: 14.1 ± 2.42 %ID/g
tumor, 0.037 MBq, 2 h post-injection, read-out: Tumor, Percentage Injected Dose/gram
  tissue uptake at 2 h: 21.4 ± 3.74 %ID/g
tumor, 0.037 MBq, 4 h post-injection, read-out: Tumor, Percentage Injected Dose/gram
  tissue uptake at 4 h: 16.1 ± 2 %ID/g
tumor, 0.037 MBq, 24 h post-injection, read-out: Tumor, Percentage Injected Dose/gram
  tissue uptake at 24 h: 6.81 ± 3.71 %ID/g
tumor, 2 h post-injection, NDP blockade (10 μg NDP-MSH co-injected), read-out: Tumor, Percentage Injected Dose/gram
  tissue uptake at 2 h: 1.96 ± 0.71 %ID/g
tumor, 2 h post-injection, RGD blockade (3.5 μg RGD co-injected), read-out: Tumor, Percentage Injected Dose/gram
  tissue uptake at 2 h: 16.9 ± 2.69 %ID/g
tumor/blood, 0.037 MBq, 0.5 h post-injection, read-out: Uptake Ratio Tumor/Blood
  tissue to tissue ratio at 0.5 h: 3.87
tumor/blood, 0.037 MBq, 2 h post-injection, read-out: Uptake Ratio Tumor/Blood
  tissue to tissue ratio at 2 h: 38.9
tumor/blood, 0.037 MBq, 4 h post-injection, read-out: Uptake Ratio Tumor/Blood
  tissue to tissue ratio at 4 h: 22.6
tumor/blood, 0.037 MBq, 24 h post-injection, read-out: Uptake Ratio Tumor/Blood
  tissue to tissue ratio at 24 h: 28.4
tumor/blood, 2 h post-injection, NDP blockade (10 μg NDP-MSH co-injected), read-out: Uptake Ratio Tumor/Blood
  tissue to tissue ratio at 2 h: 4.17
tumor/blood, 2 h post-injection, RGD blockade (3.5 μg RGD co-injected), read-out: Uptake Ratio Tumor/Blood
  tissue to tissue ratio at 2 h: 422
tumor/kidneys, 0.037 MBq, 0.5 h post-injection, read-out: Uptake Ratio Tumor/Kidneys
  tissue to tissue ratio at 0.5 h: 0.38
tumor/kidneys, 0.037 MBq, 2 h post-injection, read-out: Uptake Ratio Tumor/Kidneys
  tissue to tissue ratio at 2 h: 0.5
tumor/kidneys, 0.037 MBq, 4 h post-injection, read-out: Uptake Ratio Tumor/Kidneys
  tissue to tissue ratio at 4 h: 0.44
tumor/kidneys, 0.037 MBq, 24 h post-injection, read-out: Uptake Ratio Tumor/Kidneys
  tissue to tissue ratio at 24 h: 0.42
tumor/kidneys, 2 h post-injection, NDP blockade (10 μg NDP-MSH co-injected), read-out: Uptake Ratio Tumor/Kidneys
  tissue to tissue ratio at 2 h: 0.06
tumor/kidneys, 2 h post-injection, RGD blockade (3.5 μg RGD co-injected), read-out: Uptake Ratio Tumor/Kidneys
  tissue to tissue ratio at 2 h: 0.44
tumor/liver, 0.037 MBq, 0.5 h post-injection, read-out: Uptake Ratio Tumor/Liver
  tissue to tissue ratio at 0.5 h: 3.35
tumor/liver, 0.037 MBq, 2 h post-injection, read-out: Uptake Ratio Tumor/Liver
  tissue to tissue ratio at 2 h: 5.98
tumor/liver, 0.037 MBq, 4 h post-injection, read-out: Uptake Ratio Tumor/Liver
  tissue to tissue ratio at 4 h: 3.26
tumor/liver, 0.037 MBq, 24 h post-injection, read-out: Uptake Ratio Tumor/Liver
  tissue to tissue ratio at 24 h: 3.6
tumor/liver, 2 h post-injection, NDP blockade (10 μg NDP-MSH co-injected), read-out: Uptake Ratio Tumor/Liver
  tissue to tissue ratio at 2 h: 0.68
tumor/liver, 2 h post-injection, RGD blockade (3.5 μg RGD co-injected), read-out: Uptake Ratio Tumor/Liver
  tissue to tissue ratio at 2 h: 7.34
tumor/lung, 0.037 MBq, 0.5 h post-injection, read-out: Uptake Ratio Tumor/Lung
  tissue to tissue ratio at 0.5 h: 1.87
tumor/lung, 0.037 MBq, 2 h post-injection, read-out: Uptake Ratio Tumor/Lung
  tissue to tissue ratio at 2 h: 10.4
tumor/lung, 0.037 MBq, 4 h post-injection, read-out: Uptake Ratio Tumor/Lung
  tissue to tissue ratio at 4 h: 15.9
tumor/lung, 0.037 MBq, 24 h post-injection, read-out: Uptake Ratio Tumor/Lung
  tissue to tissue ratio at 24 h: 8.96
tumor/lung, 2 h post-injection, NDP blockade (10 μg NDP-MSH co-injected), read-out: Uptake Ratio Tumor/Lung
  tissue to tissue ratio at 2 h: 1.38
tumor/lung, 2 h post-injection, RGD blockade (3.5 μg RGD co-injected), read-out: Uptake Ratio Tumor/Lung
  tissue to tissue ratio at 2 h: 13.9
tumor/muscle, 0.037 MBq, 0.5 h post-injection, read-out: Uptake Ratio Tumor/Muscle
  tissue to tissue ratio at 0.5 h: 7.87
tumor/muscle, 0.037 MBq, 2 h post-injection, read-out: Uptake Ratio Tumor/Muscle
  tissue to tissue ratio at 2 h: 102
tumor/muscle, 0.037 MBq, 4 h post-injection, read-out: Uptake Ratio Tumor/Muscle
  tissue to tissue ratio at 4 h: 50.2
tumor/muscle, 0.037 MBq, 24 h post-injection, read-out: Uptake Ratio Tumor/Muscle
  tissue to tissue ratio at 24 h: 27.2
tumor/muscle, 2 h post-injection, NDP blockade (10 μg NDP-MSH co-injected), read-out: Uptake Ratio Tumor/Muscle
  tissue to tissue ratio at 2 h: 3.92
tumor/muscle, 2 h post-injection, RGD blockade (3.5 μg RGD co-injected), read-out: Uptake Ratio Tumor/Muscle
  tissue to tissue ratio at 2 h: 60.3
urine, 0.037 MBq, 0.5 h post-injection, read-out: Urine, Percent injected dose
  dose excreted at 0.5 h: 43.1 ± 5.62%
urine, 0.037 MBq, 2 h post-injection, read-out: Urine, Percent injected dose (cleared through the urinary system)
  dose excreted at 2 h: 67.8 ± 6.28%
urine, 0.037 MBq, 4 h post-injection, read-out: Urine, Percent injected dose
  dose excreted at 4 h: 75.1 ± 3.61%
urine, 0.037 MBq, 24 h post-injection, read-out: Urine, Percent injected dose
  dose excreted at 24 h: 88.3 ± 1.64%
urine, 2 h post-injection, NDP blockade (10 μg NDP-MSH co-injected), read-out: Urine, Percent injected dose
  dose excreted at 2 h: 76.8 ± 3.01%
urine, 2 h post-injection, RGD blockade (3.5 μg RGD co-injected), read-out: Urine, Percent injected dose
  dose excreted at 2 h: 71.8 ± 5.07%
